Test results published in PMC3456924, “Single-dose pharmacokinetic and toxicity analysis of pyrrole–imidazole polyamides in mice” (Cancer Chemotherapy and Pharmacology, 2012).
“And” between values parts separate entries of the source, which are not always exact repeats. Equal entries are not always repeated. “Also recorded” adds a separate entry of the source. Where two headings read alike, the source gives them in different places.

Columns and labels:
[1] = Plasma pharmacokinetics after a single IV tail vein injection; assay type: in vivo, BALB/C mice; settings: for half-life / Cmax / AUC(0-inf) / clearance: iv; for concentration at 24 h: 24 h after single IV, read-out: average plasma concentration 24 h postinjection
Protocol: (§1) Pyrrole–imidazole polyamide pharmacokinetic studies were performed in 10- to 12-week-old female BALB/C mice (Charles River). Polyamides were solubilized in PBS (1) or PBS/DMSO (2) and administered via intravenous (IV) tail vein injection at concentrations of 7.5 and 5 mg/kg, respectively. For each experiment, groups of 3 animals were euthanized at 0.083, 0.25, 0.5, 1, 2, 4, 8, and 24 h after injection. Animals designated for the 4, 8, and 24 h time points were housed in metabolic cages for collection of urine and feces as described below. All animals used in the pharmacokinetic experiments were performed under an approved protocol at the City of Hope.
Concentrations of polyamides 1 and 2 were analyzed by LC/MS/MS using a Waters Acquity UPLC system (Milford, MA, USA) interfaced with a Waters Quattro Premier XE Mass Spectrometer. HPLC separation was achieved using a Jupiter 4u Proteo 90A 150 × 2.0 mm column (Phenomenex, Torrance, CA, USA) proceeded by a Phenomenex C8 guard column (Torrance, CA, USA). The column temperature was maintained at 30 °C. The mobile phase consisted of A (0.05 % acetic acid in water) and B (0.05 % acetic acid in acetonitrile). The following gradient program was used: 8 % B (0–1 min, 0.3 ml/min), 16 % B (3 min, 0.3 ml/min), 58 % B (6 min, 0.3 ml/min), 90 % B (7 min, 0.3 ml/min), and 8 % B (7.3 min, 0.3 ml/min). The total run time was 11.5 min. The auto-injector temperature was maintained at 5 °C. The strong needle wash solution was 5 % formic acid in MeOH/ACN (2:8) for both compounds, and the weak needle wash solution was 30 % MeOH in water for compound 1 and 50 % ACN in water for compound 2. The electrospray ionization source of the mass spectrometer was operated in positive ion mode with a cone gas flow of 50 L/hr and a desolvation gas flow of 700 L/hr. The capillary voltage was set to 3.2 kV, and the cone and collision cell voltages were optimized to 32 and 27 V for 1 and the INS 3. Voltages were optimized to 31 and 20 V for 2 and the INS 4. The source temperature was 125 °C, and the desolvation temperature was 470 °C. A solvent delay program was used from 0 to 4.0 min and from 6.1 to 11.5 min to minimize the mobile phase to flow to the source. MassLynx version 4.1 software was used for data acquisition and processing.
Plasma and urine samples were prepared for LC/MS/MS analysis by mixing 30 μL of plasma with 20 μL of 50 % MeOH and 50 % aqueous 1 % HOAc. The mixture was vortexed and mixed with an additional 120 μL of 0.5 % HOAc in MeOH/ACN (4:6) and 20 μL of 6.0 μg/mL INS in MeOH/1 % aqueous HOAc (1:1). The mixture was vortexed again for 2 min and centrifuged at the highest setting for 4 min. Next, 20 μL of the supernatant was transferred to a new tube and mixed with 180 μL of 50 % MeOH/ACN (4:6) and 50 % aqueous 1 % HOAc.
Standard curves were prepared mixing untreated plasma with 20 μL of 50 % MeOH and 50 % aqueous 1 % HOAc prepared with various concentrations of 1 and 2. Internal standards were added as described above.
Plasma pharmacokinetic parameters were derived from polyamide concentration profiles using both non-compartmental and compartmental methods. Non-compartmental analysis was performed according to statistical moment theory and the rule of linear trapezoids, while compartmental analysis was performed in ADAPT II [24]. Pharmacokinetic parameters estimated from the non-compartmental analysis include the maximum concentration (C max), the terminal elimination half-life (t 1/2), the mean residence time (MRT), the area under the concentration curve (AUC0–24h), the AUC extrapolated to infinity (AUC0–∞), and the clearance (CL). Additional plasma pharmacokinetic parameters determined from the compartmental analysis include the alpha and beta half-lives (t 1/2) and the apparent volume of distribution (V d). Tissue pharmacokinetic parameters were determined non-compartmentally and included the C max and AUC0–24h. […]

[2] = Tissue distribution (liver, kidney, lung) after a single IV injection; assay type: in vivo, BALB/C mice; settings: for Tmax / concentration at 24 h: female, BALB/C, mouse; for concentration at 24 h: experiment endpoint (24 h), read-out: concentration remaining in the liver at the experiment endpoint; for AUC (AUC0–24h) kidney / C max kidney / AUC (AUC0–24h) liver / C max liver / AUC (AUC0–24h) lung / C max lung: 7.5 mg/kg (1), 5 mg/kg (2); for concentration in the lung maintained over the entire time course: lowest level over 24 h
Protocol: as §1
Distribution of polyamides 1 and 2 was determined in the liver, kidneys, and lungs. The organs were harvested post-euthanasia and prepared via similar processes. A piece of the mouse organ was weighed and mixed with distilled water (3 μL/mg tissue). The tissue was then homogenized by pulsing three times on a TissueLyser for 2 min each at 30 Hz. Next, 30 μL of the tissue homogenate was mixed with 20 μL of 50 % MeOH and 50 % aqueous 1 % HOAc. The mixture was then vortex mixed with 0.12 mL 0.5 % HOAc in MeOH/ACN (2:8) and 20 μL of 6.0 μg/mL INS in MeOH/1 % aqueous HOAc (1:1) for 10 min and centrifuged at the highest setting for an additional 10 min. Samples treated with polyamide 1 were then diluted with 50 % MeOH/ACN (4:6) and 50 % aqueous 1 % HOAc. Samples treated with polyamide 2 were diluted with 50 % MeOH/ACN (4:6) and 50 % aqueous 3 % FA.
Plasma pharmacokinetic parameters were derived from polyamide concentration profiles using both non-compartmental and compartmental methods. Non-compartmental analysis was performed according to statistical moment theory and the rule of linear trapezoids, while compartmental analysis was performed in ADAPT II [24]. Pharmacokinetic parameters estimated from the non-compartmental analysis include the maximum concentration (C max), the terminal elimination half-life (t 1/2), the mean residence time (MRT), the area under the concentration curve (AUC0–24h), the AUC extrapolated to infinity (AUC0–∞), and the clearance (CL). Additional plasma pharmacokinetic parameters determined from the compartmental analysis include the alpha and beta half-lives (t 1/2) and the apparent volume of distribution (V d). Tissue pharmacokinetic parameters were determined non-compartmentally and included the C max and AUC0–24h. Urinary and fecal excretion data were expressed as the cumulative percentage of the administered dose.

C57BL/6 mice = test: Toxicity (weight loss, signs of duress) after a single SC injection; settings: for additional signs of duress / dose level with critical (>15 %) / dose-limiting weight loss: single SC injection, 7-day observation
Excerpt: Four animals were used in each group unless otherwise noted.

[3] = female, BALB/C, mouse, plasma, compartmental analysis, single IV, 7.5 mg/kg (1), 5 mg/kg (2)
[4] = female, BALB/C, mouse, plasma, non-compartmental analysis, single IV, 7.5 mg/kg (1), 5 mg/kg (2)
[5] = female, BALB/C, mouse, plasma, 7.5 mg/kg (1), 5 mg/kg (2)
[6] = plasma, compartmental analysis, single IV, 7.5 mg/kg (1), 5 mg/kg (2)
[7] = plasma, non-compartmental analysis, single IV, 7.5 mg/kg (1), 5 mg/kg (2)

CN(CCCNC(=O)c1cccc(C(=O)O)c1)CCCNC(=O)c1cc(NC(=O)c2cc(NC(=O)c3cc(NC(=O)c4nc(NC(=O)[C@H](N)CCNC(=O)c5cc(NC(=O)c6cc(NC(=O)c7cc(NC(=O)c8nccn8C)cn7C)cn6C)cn5C)cn4C)cn3C)cn2C)cn1C [Polyamide 1]
half-life ([1]; female, BALB/C, mouse, plasma, plasma, compartmental analysis, single IV, 7.5 mg/kg (1), 5 mg/kg (2), read-out: t 1/2 α (initial) (converted)): 0.5 h | half-life ([1]; female, BALB/C, mouse, plasma, plasma, compartmental analysis, single IV, 7.5 mg/kg (1), 5 mg/kg (2), read-out: t 1/2 β (terminal) (converted)): 4.6 h | half-life ([1]; female, BALB/C, mouse, plasma, plasma, non-compartmental analysis, single IV, 7.5 mg/kg (1), 5 mg/kg (2), read-out: Elimination t 1/2 (converted)): 5.2 h | Cmax ([1]; female, BALB/C, mouse, plasma, compartmental analysis (2-compartment model), single IV, 7.5 mg/kg (1), 5 mg/kg (2)): 43600 ng/mL | AUC(0-inf) [1, 3]: 67500 ng·h/mL | clearance [1, 3]: 0.035 mL/min | AUC(0-inf) [1, 4]: 77400 ng·h/mL | clearance [1, 4]: 0.03 mL/min | Cmax ([1]; female, BALB/C, mouse, plasma, non-compartmental analysis, single IV, 7.5 mg/kg (1), 5 mg/kg (2), mean ± S.D., n = 3): 49400 ± 11200 ng/mL | concentration at 24 h [1, 5]: 210 ± 100 ng/mL | Vd ([1]; female, BALB/C, mouse, plasma, compartmental analysis, single IV, 7.5 mg/kg (1), 5 mg/kg (2), read-out: V d): 0.0081 L | AUC(0-t) [1, 4]: 75800 ng·h/mL | MRT ([1]; female, BALB/C, mouse, plasma, non-compartmental analysis, single IV, 7.5 mg/kg (1), 5 mg/kg (2), read-out: MRT): 3.3 h | maximum plasma concentration relative to effective concentration for PSA mRNA downregulation in cell culture ([1]; plasma C max vs cell culture effective concentration): over 3 times | Tmax ([2]; kidney, single IV, read-out: time of maximum concentration in kidney postinjection (converted)): 0.0833 h | concentration at 24 h ([2]; liver, single IV): 4800 ± 300 ng/g | Tmax ([2]; liver, single IV, read-out: time of maximum concentration in liver postinjection (converted)): 0.0833 h | Tmax ([2]; lung, single IV, read-out: time of peak concentration in lung following injection (converted)): 0.25 h | AUC (AUC0–24h) kidney ([2]; kidney, single IV): 299.2 µg·h/g | C max kidney ([2]; kidney, single IV): 27.0 ± 2.9 µg/g | AUC (AUC0–24h) liver ([2]; liver, single IV): 157.7 µg·h/g | C max liver ([2]; liver, single IV): 11.7 ± 1.3 µg/g | concentration in the lung maintained over the entire time course ([2]; lung, single IV): above 2.8 ± 0.2 μg/g | AUC (AUC0–24h) lung ([2]; lung, single IV): 130.6 µg·h/g | C max lung ([2]; lung, single IV): 16.4 ± 1.4 µg/g | additional signs of duress (C57BL/6 mice): no additional sign of duress was observed | dose level with critical (>15 %) / dose-limiting weight loss (C57BL/6 mice): 10 mg/kg

CC(=O)N[C@@H](CNC(=O)c1cc(NC(=O)c2cc(NC(=O)c3cc(NC(=O)c4nccn4C)cn3C)cn2C)cn1C)CC(=O)Nc1cn(C)c(C(=O)Nc2cc(C(=O)Nc3cc(C(=O)Nc4cc(C(=O)NCCCN(C)CCCNC(=O)c5cccc(C(=O)O)c5)n(C)c4)n(C)c3)n(C)c2)n1 [Polyamide 2]
concentration at 24 h [1, 5]: 490 ± 200 ng/mL | C max ([1]; plasma, compartmental analysis (2-compartment model), single IV, 7.5 mg/kg (1), 5 mg/kg (2)): 40200 ng/mL | AUC0–∞ [1, 6]: 144800 ng·h/mL | CL [1, 6]: 0.7 mL/h | Vd [1, 6]: 0.004 L | t 1/2 α (initial) [1, 6]: 6 min | t 1/2 β (terminal) [1, 6]: 4.2 h | AUC0–t [1, 7]: 173500 ng·h/mL | AUC0–∞ [1, 7]: 176500 ng·h/mL | CL [1, 7]: 0.6 mL/h | Elimination t 1/2 [1, 7]: 4.3 h | MRT [1, 7]: 4.9 h | C max ([1]; plasma, non-compartmental analysis, single IV, 7.5 mg/kg (1), 5 mg/kg (2), mean ± S.D., n = 3): 41300 ± 5900 ng/mL | concentration at 24 h ([2]; liver, single IV): 17400 ± 8100 ng/g | time of maximum concentration in kidney postinjection ([2]; kidney, single IV): 5 min | AUC (AUC0–24h) kidney ([2]; kidney, single IV): 424.7 µg·h/g | C max kidney ([2]; kidney, single IV): 35.1 ± 2.8 µg/g | time of maximum concentration in liver postinjection ([2]; liver, single IV): 5 min | AUC (AUC0–24h) liver ([2]; liver, single IV): 301.3 µg·h/g | C max liver ([2]; liver, single IV): 43.8 ± 0.7 µg/g | lung C max of polyamide 2 relative to compound 1 ([2]; lung, initial distribution): greater than 15 fold | concentration in the lung maintained over the entire time course ([2]; lung, single IV): > 21.8 ± 7.6 µg/g | time of peak concentration in lung following injection ([2]; lung, single IV): 15 min | AUC (AUC0–24h) lung ([2]; lung, single IV): 523.5 µg·h/g | C max lung ([2]; lung, single IV): 256 ± 93.1 µg/g | relative toxicity in weight curve experiments (C57BL/6 mice; single SC injection of 1 and 2): more toxic | additional signs of duress (C57BL/6 mice): multiple signs of duress such as loss of ambulation and hunched posture in addition to weight loss; also recorded: additional signs of physical duress in addition to weight loss at all concentrations except 1.1 mg/kg | dose level with critical (>15 %) / dose-limiting weight loss (C57BL/6 mice): 4.5 mg/kg and 2.3 mg/kg
